{"source": "patent US7261876B2", "about": "“Multivalent constructs for therapeutic and diagnostic applications” (Bracco International BV, priority 2002, dated 2007)", "target": "T1, KDR (Homo sapiens, UniProt P35968)", "T1 construct": "host or cells: HUVEC", "T1 sequence (P35968 20-1356)": "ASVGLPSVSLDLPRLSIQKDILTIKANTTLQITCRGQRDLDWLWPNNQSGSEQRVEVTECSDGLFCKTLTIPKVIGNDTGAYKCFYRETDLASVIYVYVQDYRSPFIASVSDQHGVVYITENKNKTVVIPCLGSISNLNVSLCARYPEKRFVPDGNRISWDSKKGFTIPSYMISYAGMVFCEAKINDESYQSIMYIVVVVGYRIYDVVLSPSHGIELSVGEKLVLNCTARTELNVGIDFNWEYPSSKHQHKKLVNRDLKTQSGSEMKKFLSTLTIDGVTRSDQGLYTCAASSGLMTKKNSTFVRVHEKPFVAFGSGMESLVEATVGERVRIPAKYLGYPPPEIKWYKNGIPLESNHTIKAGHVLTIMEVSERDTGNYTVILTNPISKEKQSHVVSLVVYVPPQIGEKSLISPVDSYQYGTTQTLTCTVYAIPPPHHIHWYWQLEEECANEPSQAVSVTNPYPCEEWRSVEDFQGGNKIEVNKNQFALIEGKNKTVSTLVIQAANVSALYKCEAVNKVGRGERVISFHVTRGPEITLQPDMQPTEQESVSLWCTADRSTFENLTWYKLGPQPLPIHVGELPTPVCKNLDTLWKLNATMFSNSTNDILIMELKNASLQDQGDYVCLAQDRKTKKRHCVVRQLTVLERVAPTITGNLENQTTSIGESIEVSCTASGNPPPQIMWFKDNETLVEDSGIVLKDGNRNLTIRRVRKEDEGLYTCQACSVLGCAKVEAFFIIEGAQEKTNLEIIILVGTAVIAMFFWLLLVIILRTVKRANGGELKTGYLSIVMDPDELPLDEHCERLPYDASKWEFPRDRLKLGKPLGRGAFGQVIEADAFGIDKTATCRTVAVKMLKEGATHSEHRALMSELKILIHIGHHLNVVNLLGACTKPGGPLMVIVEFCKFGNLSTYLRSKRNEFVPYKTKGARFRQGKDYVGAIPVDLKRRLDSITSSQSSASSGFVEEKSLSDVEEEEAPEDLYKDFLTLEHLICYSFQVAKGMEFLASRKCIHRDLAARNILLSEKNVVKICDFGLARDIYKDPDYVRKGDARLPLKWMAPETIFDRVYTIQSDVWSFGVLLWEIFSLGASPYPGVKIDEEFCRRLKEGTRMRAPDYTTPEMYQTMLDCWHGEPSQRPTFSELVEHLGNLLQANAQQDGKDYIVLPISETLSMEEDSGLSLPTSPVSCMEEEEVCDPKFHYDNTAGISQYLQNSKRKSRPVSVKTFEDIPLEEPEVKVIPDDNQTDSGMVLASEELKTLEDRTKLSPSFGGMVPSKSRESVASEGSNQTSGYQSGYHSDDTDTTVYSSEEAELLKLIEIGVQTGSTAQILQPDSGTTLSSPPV", "experiment": "VEGF-induced KDR receptor activation (phosphorylation) assay in HUVECs", "assay_type": "cell-based", "conditions": "for inhibition at 10 µM: HUVEC, read-out: inhibition of VEGF-induced KDR phosphorylation", "text": "Human umbilical vein endothelial cells (HUVECs) (Biowhittaker Cat No. CC-2519) were obtained frozen on dry ice and stored in liquid nitrogen until thawing. These cells were thawed, passaged, and maintained as described by the manufacturer in EGM-MV medium (Biowhittaker Cat No. CC-3125). Cells seeded into 100 mm dishes were allowed to become confluent, then cultured overnight in basal EBM medium lacking serum (Biowhittaker Cat No. CC-3121). The next morning, the medium in the dishes was replaced with 10 mL fresh EBM medium at 37° C. containing either no additive (negative control), 5 ng/mL VEGF (Calbiochem Cat No. 676472 or Peprotech Cat No. 100-20) (positive control), or 5 ng/mL VEGF plus the indicated concentration of the KDR-binding peptide (prepared as described above). In some cases, a neutralizing anti-KDR antibody (Cat No. AF357, R&D Systems) was used as a positive control inhibitor of activation. In such cases, the antibody was pre-incubated with the test cells for 30 min at 37° C. prior to the addition of fresh medium containing both VEGF and the antibody. After incubating the dishes 5 min in a 37° C. tissue culture incubator they were washed three times with ice-cold Dulbecco's phosphate buffered saline (D-PBS) containing calcium and magnesium and placed on ice without removing the last 10 mL of D-PBS. The first dish of a set was drained and 0.5 mL of Triton lysis buffer was added (20 mM Tris base pH 8.0, 137 mM NaCl, 10% glycerol, 1% Triton X-100, 2 mM EDTA (ethylenediaminetetraacetic acid), 1 mM PMSF (phenylmethylsulfonylfluoride), 1 mM sodium orthovanadate, 100 mM NaF, 50 mM sodium pyrophosphate, 10 μg/mL leupeptin, 10 μg/mL aprotinin). The cells were quickly scraped into the lysis buffer using a cell scraper (Falcon, Cat No. 353087), dispersed by pipeting up and down briefly, and the resulting lysate was transferred to the second drained dish of the pair. Another 0.5 mL of lysis buffer was used to rinse out the first dish then transferred to the second dish, which was then also scraped and dispersed. The pooled lysate from the two dishes was transferred to a 1.5 mL Eppindorf tube. The above procedure was repeated for each of the controls and test samples (KDR-binding peptides), one at a time. The lysates were stored on ice until all the samples had been processed. At this point samples were either stored at −70° C. or processed to the end of the assay without interruption.\nThe lysates, either freshly prepared or frozen and thawed, were precleared by adding 20 μL of protein A-sepharose beads (Sigma 3391, preswollen in D-PBS), washed three times with a large excess of D-PBS, reconstituted with 6 mL D-PBS to generate a 50% slurry) and rocked at 4° C. for 30 min. The beads were pelleted by centrifugation for 2 min in a Picofuge (Stratgene, Cat No. 400550) at 2000×g and the supernatants transferred to new 1.5 mL tubes. 20 μg of anti-Flk-1 antibody (Santa Cruz Biotechnology, Cat No. sc-504) was added to each tube, and the tubes were incubated overnight (16–18 h) at 4° C. on a rotator to immunoprecipitate KDR. The next day 40 μL of protein A-sepharose beads were added to the tubes, which were then incubated at 4° C. for 1 h on a rotator. The beads in each tube were subsequently washed three times by centrifuging for 2 min in a Picofuge, discarding the supernatant, and dispersing the beads in 1 mL freshly added TBST buffer (20 mM Tris base pH 7.5, 137 mM NaCl, and 0.1% Tween 20). After centrifuging and removing the liquid from the last wash, 40 μL of Laemmli SDS-PAGE sample buffer (Bio-Rad, Cat No. 161-0737) was added to each tube and the tubes were capped and boiled for 5 min. After cooling, the beads in each tube were pelleted by centrifuging and the supernatants containing the immunoprecipitated KDR were transferred to new tubes and used immediately or frozen and stored at −70° C. for later analysis.\nDetection of phosphorylated KDR as well as total KDR in the immunoprecipitates was carried out by immunoblot analysis. […]", "note": "Like-named read-outs stand apart in the source and are kept apart here. Positions of bridges follow the written chain, without caps; N, C: chain ends. Non-standard residues stand in square brackets, D forms with d. Residues, ends and D or L forms follow the SMILES beside them. Lys(ivDde) = CC(C)CC(NCCCC[C@H](N)C(=O)O)=C1C(=O)CC(C)(C)CC1=O"}
{"smiles": "CC[C@H](C)[C@@H]1NC(=O)CNC(=O)[C@H](CC(=O)O)NC(=O)[C@@H]2CCCN2C(=O)[C@H](Cc2c[nH]cn2)NC(=O)[C@H](Cc2ccc(O)cc2)NC(=O)[C@@H](NC(=O)[C@H](CCC(=O)O)NC(=O)[C@@H](NC(=O)[C@H](Cc2c[nH]c3ccccc23)NC(=O)CNC(=O)[C@H](C)NC(C)=O)[C@@H](C)CC)CSSC[C@@H](C(=O)N[C@@H](Cc2ccc(O)cc2)C(=O)N[C@@H](Cc2c[nH]cn2)C(=O)N[C@@H](Cc2ccccc2)C(=O)NCC(=O)N[C@H](C(=O)NCC(=O)NCC(=O)NCC(=O)N[C@@H](CCCCN)C(N)=O)[C@@H](C)O)NC1=O", "note": "[P2-D] (Ac-AGWIECYHPDGICYHFGTGGGK-NH2; disulfide 6-13)", "values": [{"measurement": "inhibition at 10 µM", "result": "≥ 50", "unit": "%"}]}
{"smiles": "CC(=O)N[C@@H](C)C(=O)NCC(=O)N[C@@H](Cc1c[nH]c2ccccc12)C(=O)N[C@@H](CC(C)C)C(=O)N[C@@H](CCC(=O)O)C(=O)N[C@H]1CSSC[C@@H](C(=O)N[C@@H](Cc2ccc(O)cc2)C(=O)N[C@@H](CC(N)=O)C(=O)N[C@@H](Cc2ccccc2)C(=O)NCC(=O)N[C@H](C(=O)NCC(=O)NCC(=O)NCC(=O)N[C@@H](CCCCN)C(N)=O)[C@@H](C)O)NC(=O)[C@H](Cc2c[nH]cn2)NC(=O)CNC(=O)[C@H](Cc2ccccc2)NC(=O)[C@H](CCC(=O)O)NC(=O)[C@H](C)NC(=O)[C@H](Cc2ccc(O)cc2)NC1=O", "note": "[P3-D] (Ac-AGWLECYAEFGHCYNFGTGGGK-NH2; disulfide 6-13)", "values": [{"measurement": "inhibition at 10 µM", "setting": "10 μM", "result": "≥ 50", "unit": "%"}]}
{"smiles": "CSCC[C@@H]1NC(=O)[C@H]([C@@H](C)O)NC(=O)[C@@H](NC(=O)[C@@H](NC(=O)[C@H](CC(=O)O)NC(=O)[C@@H]2CCCN2C(=O)[C@H](CC(=O)O)NC(=O)CNC(C)=O)[C@@H](C)O)CSSC[C@@H](C(=O)N[C@@H](Cc2ccccc2)C(=O)N2CCC[C@H]2C(=O)N[C@@H](C)C(=O)N[C@@H](CC(=O)O)C(=O)N2CCC[C@H]2C(=O)NCC(=O)NCC(=O)NCC(=O)N[C@@H](CCCCN)C(N)=O)NC(=O)[C@H](Cc2ccc(O)cc2)NC(=O)[C@H](Cc2c[nH]c3ccccc23)NC(=O)[C@H](CCCNC(=N)N)NC(=O)CNC(=O)[C@H](CO)NC(=O)[C@H](CC(=O)O)NC(=O)CNC(=O)[C@H](Cc2c[nH]c3ccccc23)NC1=O", "note": "[P8-D] (Ac-GDPDTCTMWGDSGRWYCFPADPGGGK-NH2; disulfide 6-17)", "values": [{"measurement": "inhibition at 10 µM", "result": "≥ 50", "unit": "%"}]}
{"smiles": "CC[C@H](C)[C@@H]1NC(=O)[C@H](Cc2c[nH]c3ccccc23)NC(=O)[C@H](CCC(N)=O)NC(=O)CNC(=O)[C@H](CC(N)=O)NC(=O)[C@H](Cc2c[nH]cn2)NC(=O)[C@H](CC(C)C)NC(=O)[C@H](Cc2ccc(O)cc2)NC(=O)[C@@H](NC(=O)[C@H](Cc2c[nH]cn2)NC(=O)[C@H](Cc2c[nH]cn2)NC(=O)[C@H](CC(=O)O)NC(=O)[C@H](CO)NC(=O)CNC(C)=O)CSSC[C@@H](C(=O)N[C@@H](Cc2ccc(O)cc2)C(=O)N2CCC[C@H]2C(=O)N[C@@H](Cc2ccccc2)C(=O)N[C@@H](C)C(=O)N2CCC[C@H]2C(=O)NCC(=O)NCC(=O)NCC(=O)N[C@@H](CCCCN)C(N)=O)NC1=O", "note": "[P14-D] (Ac-GSDHHCYLHNGQWICYPFAPGGGK-NH2; disulfide 6-15)", "values": [{"measurement": "inhibition of KDR activation", "setting": "10 μM", "result": "did not produce significant inhibition of KDR activation"}]}
{"smiles": "CC(=O)NCC(=O)N[C@@H](CC(=O)O)C(=O)N[C@@H](Cc1ccc(O)cc1)C(=O)N1CCC[C@H]1C(=O)N[C@@H](Cc1c[nH]c2ccccc12)C(=O)N[C@H]1CSSC[C@@H](C(=O)N[C@H](C(=O)N2CCC[C@H]2C(=O)N[C@@H](Cc2c[nH]c3ccccc23)C(=O)N[C@@H](CC(=O)O)C(=O)N2CCC[C@H]2C(=O)NCC(=O)NCC(=O)NCC(=O)N[C@@H](CCCCN)C(N)=O)C(C)C)NC(=O)[C@H](Cc2ccccc2)NC(=O)[C@H](CCCNC(=N)N)NC(=O)[C@H]([C@@H](C)O)NC(=O)[C@H](C(C)C)NC(=O)[C@H](CO)NC(=O)[C@H](CC(=O)O)NC(=O)[C@H](CO)NC(=O)[C@H](CC(C)C)NC(=O)[C@H](CCC(=O)O)NC(=O)[C@H](Cc2c[nH]cn2)NC1=O", "note": "[P15-D] (Ac-GDYPWCHELSDSVTRFCVPWDPGGGK-NH2; disulfide 6-17)", "values": [{"measurement": "inhibition of KDR activation", "setting": "10 μM", "result": "did not produce significant inhibition of KDR activation"}]}
{"smiles": "CSCC[C@H](NC(=O)[C@H](Cc1c[nH]cn1)NC(=O)[C@H](CC(=O)O)NC(=O)[C@H](CC(=O)O)NC(=O)CNC(C)=O)C(=O)N[C@H]1CSSC[C@@H](C(=O)N[C@@H](CCSC)C(=O)N[C@@H](Cc2ccc(O)cc2)C(=O)N[C@@H](Cc2c[nH]c3ccccc23)C(=O)N[C@@H](CC(=O)O)C(=O)N2CCC[C@H]2C(=O)NCC(=O)NCC(=O)NCC(=O)N[C@@H](CCCCN)C(N)=O)NC(=O)[C@H](Cc2ccccc2)NC(=O)[C@H](C(C)C)NC(=O)[C@H](Cc2c[nH]cn2)NC(=O)[C@H](CC(=O)O)NC(=O)[C@H](CCC(N)=O)NC(=O)[C@H](Cc2ccc(O)cc2)NC(=O)[C@H](CC(=O)O)NC(=O)[C@@H]2CCCN2C(=O)[C@H](CO)NC(=O)[C@H](CCCNC(=N)N)NC1=O", "note": "[P16-D] (Ac-GDDHMCRSPDYQDHVFCMYWDPGGGK-NH2; disulfide 6-17)", "values": [{"measurement": "inhibition of KDR activation", "setting": "10 μM", "result": "did not produce significant inhibition of KDR activation"}]}
{"smiles": "CC(=O)NCC(=O)N[C@@H](CC(=O)O)C(=O)N1CCC[C@H]1C(=O)N1CCC[C@H]1C(=O)N[C@@H](CC(C)C)C(=O)N[C@H]1CSSC[C@@H](C(=O)N[C@@H](CC(N)=O)C(=O)N2CCC[C@H]2C(=O)N[C@@H](Cc2ccccc2)C(=O)N[C@@H](CC(=O)O)C(=O)N2CCC[C@H]2C(=O)NCC(=O)NCC(=O)NCC(=O)N[C@@H](CCCCN)C(N)=O)NC(=O)[C@H](Cc2c[nH]cn2)NC(=O)[C@H](Cc2c[nH]cn2)NC(=O)[C@H](Cc2c[nH]c3ccccc23)NC(=O)[C@H](CCC(=O)O)NC(=O)[C@H](CCC(N)=O)NC(=O)[C@H]([C@@H](C)O)NC(=O)CNC(=O)[C@H](C(C)C)NC(=O)[C@H](Cc2ccccc2)NC(=O)[C@H](Cc2ccc(O)cc2)NC1=O", "note": "[P17-D] (Ac-GDPPLCYFVGTQEWHHCNPFDPGGGK-NH2; disulfide 6-17)", "values": [{"measurement": "inhibition of KDR activation", "setting": "10 μM", "result": "did not produce significant inhibition of KDR activation"}]}
{"smiles": "CSCC[C@@H]1NC(=O)[C@H](CCC(=O)O)NC(=O)[C@@H](NC(=O)[C@H](Cc2c[nH]c3ccccc23)NC(=O)[C@H](CO)NC(=O)CNC(=O)[C@H](CC(=O)O)NC(=O)CNC(C)=O)CSSC[C@@H](C(=O)N[C@@H](Cc2ccccc2)C(=O)N[C@@H](CO)C(=O)N[C@@H](CC(=O)O)C(=O)N[C@@H](CC(=O)O)C(=O)N2CCC[C@H]2C(=O)NCC(=O)NCC(=O)NCC(=O)N[C@@H](CCCCN)C(N)=O)NC(=O)[C@H](CC(N)=O)NC(=O)[C@H](Cc2c[nH]c3ccccc23)NC(=O)[C@H](CCCCNC(CC(C)C)=C2C(=O)CC(C)(C)CC2=O)NC(=O)CNC(=O)[C@H](C(C)C)NC(=O)[C@H](CC(=O)O)NC(=O)[C@H](CCC(N)=O)NC(=O)[C@H](CCCNC(=N)N)NC1=O", "note": "[P18-E] (Ac-GDGSWCEMRQDVG[Lys(ivDde)]WNCFSDDPGGGK-NH2; disulfide 6-17)", "values": [{"measurement": "inhibition of KDR activation", "setting": "10 μM", "result": "did not produce significant inhibition of KDR activation"}]}
